From publication PMC5109486, “Computational Drug Target Screening through Protein Interaction Profiles” (Scientific Reports, 2016)
Like-named read-outs stand apart in the source and are kept apart here. Each block holds one compound with its values, some of them ahead of it.

How the values were obtained:
hCOX-1 = target: T1, hCOX-1 (Homo sapiens, UniProt P23219); assay: hCOX-1 activity, TMPD oxidation, human platelet microsomes, arachidonic acid substrate; format: biochemical; details: for inhibition at 25 µM: read-out: % enzymatic inhibition of hCOX-1 at 25 μM, compounds precipitated at higher concentrations
T1 construct: using arachidonic acid as substrate for hCOX-1 from human platelet microsomes; from tissue; host or cells: microsomes of human platelets isolated from buffy coats
Description: Human platelets were isolated by centrifugation from buffy coats obtained from the Centro de Transfusion de Galicia (Santiago de Compostela, Spain) and prepared as described.
The upper layer obtained in this centrifugation, containing platelet rich plasma, was gently removed and centrifuged at 850 g for 20 min at 4 °C in a centrifuge (J2-MI, Beckman Instruments, Inc., Palo Alto, California, USA). The platelet pellet was recovered, resuspended with washing buffer, and centrifuged again at 850 g for 20 min at 4 °C. To prepare human platelet microsomes, the resultant platelet pellet of the above centrifugation was resuspended in 7 mL of sodium phosphate buffer (10 mM, pH 7.4), sonicated at 50 W for 50 s (5 pulses of 10 s), and centrifuged at 850 g for 20 min at 4 °C in a refrigerated centrifuge. The pellet was discarded and the supernatant was subsequently centrifuged at 10 000 g for 10 min at 4 °C in the same centrifuge. The pellet obtained in this centrifugation was discarded and the supernatant was finally centrifuged at 100 000 g for 1 h at 4 °C in an ultracentrifuge (Beckman Instruments, Inc., Palo Alto, California, USA).
The biological evaluation of the test drugs on hCOX-1 activity (bisdioxygenase and peroxidase reactions) was investigated by measuring their effects on the oxidation of N, N, N’, N’-tetramethyl-p-phenylenediamine (TMPD) to N, N, N’, N’-tetramethyl-p-phenylene-diimine, using arachidonic acid as substrate for hCOX-1 from human platelet microsomes (obtained as described in the above paragraph). The formation of N, N, N’, N’-tetramethyl-p-phenylenediimine (a coloured compound) from N, N, N’, N’-tetramethyl-p-phenylenediamine catalyzed by COX can be detected spectrophotometrically at 600 nm. In this study, hCOX activity was evaluated using a spectrophotometric method. Briefly, 0.1 mL of Tris–HCl buffer (100 mM, pH 8) containing […], […], various concentrations of the test drugs, and appropriate amounts of hCOX-1 (0.08 A600 U/min) were incubated for short periods of time (3–5 min) to avoid a notable loss of COX activity at 37 °C in a flat-bottom 96-well microtest plate (BD Biosciences, Franklin Lakes, NJ, USA) placed in the dark multimode microplate reader chamber. After this incubation period, the reaction was started by adding (final concentration) […] and the formation of N, N,N’,N’-tetramethyl-p-phenylenediimine from TMPD, i.e., the increase in absorbance at 600 nm was measured at 37 °C in a multi-mode microplate reader (Fluostar Optima, BMG Labtech GmbH, Offenburg, Germany) for 25 s, aperiod in which the absorbance increased linearly from the beginning. The specific absorbance (used to obtain the final results) was calculated after subtraction of the background absorbance generated in wells containing a blank solution, i.e., all components except the COX isoform, which were replaced by a Tris–HCl buffer solution.
Control experiments were carried out simultaneously by replacing the test drugs (new compounds and reference inhibitors) with appropriate dilutions of the vehicles. In addition, the possible capacity of the above test drugs to modify the absorbance of the reaction mixture due to non-enzymatic inhibition (e.g., for directly reacting with TMPD) was determined by adding these drugs to solutions containing only TMPD in a Tris–HCl buffer solution.

hMAO-A = target: T2, hMAO-A (Homo sapiens, UniProt P21397); assay: hMAO-A enzymatic inhibition, Amplex Red MAO assay (H2O2 from p-tyramine); format: biochemical
T2 construct: purchased Sigma-Aldrich; host or cells: insect cells (BTI-TN-5B1-4) infected with recombinant baculovirus; microsomal preparation
T2 sequence (P21397 1-527): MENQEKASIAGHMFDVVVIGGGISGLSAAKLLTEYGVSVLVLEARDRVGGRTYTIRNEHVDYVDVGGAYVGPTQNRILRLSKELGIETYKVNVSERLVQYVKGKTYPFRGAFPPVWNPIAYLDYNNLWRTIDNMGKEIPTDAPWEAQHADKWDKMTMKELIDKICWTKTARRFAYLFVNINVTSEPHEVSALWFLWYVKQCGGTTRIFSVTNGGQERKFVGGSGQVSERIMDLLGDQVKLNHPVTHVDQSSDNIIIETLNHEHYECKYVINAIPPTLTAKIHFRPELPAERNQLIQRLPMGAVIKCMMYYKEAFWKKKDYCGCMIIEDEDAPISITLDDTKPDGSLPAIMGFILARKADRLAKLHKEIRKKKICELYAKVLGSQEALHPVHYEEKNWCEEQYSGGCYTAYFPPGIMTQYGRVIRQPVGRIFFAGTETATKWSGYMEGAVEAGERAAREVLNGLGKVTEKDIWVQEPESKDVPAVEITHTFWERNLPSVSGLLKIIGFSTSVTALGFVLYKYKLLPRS
Source text: The biological evaluation on hMAO activity was investigated by measuring effects on the production of hydrogen peroxide (H2O2) from p-tyramine, using the Amplex® Red MAO assay kit and microsomal isoforms prepared from insect cells (BTI-TN-5B1-4) infected with recombinant baculovirus containing cDNA inserts for hMAO-A and hMAO-B. The production of H2O2 catalysed by the MAO isoforms was detected using 10-acetyl-3,7-dihydroxyphenoxazine (Amplex® Red reagent), a non fluorescent and highly sensitive probe that reacts with H2O2 in the presence of horseradish peroxidase to produce a fluorescent product, resorufin. […]
After this incubation period, the reaction was started by adding (final concentrations) 200 μM Amplex® Red reagent, 1 U/mL horseradish peroxidase and 1 mMp-tyramine. […] In addition, the possible capacity of the above test drugs to modify the fluorescence generated in the reaction mixture due to non-enzymatic inhibition (e.g., for directly reacting with Amplex® Red reagent) was determined by adding these drugs to solutions containing only the Amplex® Red reagent in a sodium phosphate buffer. To determine the kinetic parameters of hMAO (Km and Vmax), the corresponding enzymatic activity was evaluated (under the experimental conditions described above) in the presence of a number (a wide range) of p-tyramine concentrations. […]

hMAO-B [1] = target: T3, hMAO-B (Homo sapiens, UniProt P27338); assay: hMAO-B enzymatic inhibition, Amplex Red MAO assay (H2O2 from p-tyramine); format: biochemical
T3 construct: purchased Sigma-Aldrich; host or cells: insect cells (BTI-TN-5B1-4) infected with recombinant baculovirus; microsomal preparation
T3 sequence (P27338 1-520): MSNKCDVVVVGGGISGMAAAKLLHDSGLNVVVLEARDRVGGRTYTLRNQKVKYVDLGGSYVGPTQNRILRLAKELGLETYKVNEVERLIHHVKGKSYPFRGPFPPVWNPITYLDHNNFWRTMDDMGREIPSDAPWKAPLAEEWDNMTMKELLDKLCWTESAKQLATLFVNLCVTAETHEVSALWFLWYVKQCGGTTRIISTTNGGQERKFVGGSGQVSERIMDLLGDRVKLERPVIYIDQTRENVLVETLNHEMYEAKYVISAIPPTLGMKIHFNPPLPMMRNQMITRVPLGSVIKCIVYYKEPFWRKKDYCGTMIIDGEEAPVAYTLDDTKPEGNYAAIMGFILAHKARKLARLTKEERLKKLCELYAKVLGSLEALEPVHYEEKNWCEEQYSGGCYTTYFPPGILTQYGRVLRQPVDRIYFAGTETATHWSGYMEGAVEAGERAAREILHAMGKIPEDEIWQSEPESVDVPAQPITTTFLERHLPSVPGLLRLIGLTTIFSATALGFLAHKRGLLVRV
Source text: The biological evaluation on hMAO activity was investigated by measuring effects on the production of hydrogen peroxide (H2O2) from p-tyramine, using the Amplex® Red MAO assay kit and microsomal isoforms prepared from insect cells (BTI-TN-5B1-4) infected with recombinant baculovirus containing cDNA inserts for hMAO-A and hMAO-B. The production of H2O2 catalysed by the MAO isoforms was detected using 10-acetyl-3,7-dihydroxyphenoxazine (Amplex® Red reagent), a non fluorescent and highly sensitive probe that reacts with H2O2 in the presence of horseradish peroxidase to produce a fluorescent product, resorufin.
The selected compounds were dissolved in DMSO (Sigma-Aldrich, Alcobendas, Madrid, Spain) to prepare 10 mM stock solutions, which were kept for storage at −20 °C. Percentage of DMSO used in the experiments was never higher than 1%. Human recombinant MAO isoforms (native enzymes), used in the experiments, were purchased from Sigma-Aldrich (Alcobendas, Madrid, Spain). Test compounds were acquired from Sigma-Aldrich and Vitro S.A. (Madrid, Spain).
After this incubation period, the reaction was started by adding (final concentrations) 200 μM Amplex® Red reagent, 1 U/mL horseradish peroxidase and 1 mMp-tyramine. […] Control experiments were carried out simultaneously by replacing the test drugs (new compounds and reference inhibitor) with appropriate dilutions of the vehicles. In addition, the possible capacity of the above test drugs to modify the fluorescence generated in the reaction mixture due to non-enzymatic inhibition (e.g., for directly reacting with Amplex® Red reagent) was determined by adding these drugs to solutions containing only the Amplex® Red reagent in a sodium phosphate buffer. To determine the kinetic parameters of hMAO (Km and Vmax), the corresponding enzymatic activity was evaluated (under the experimental conditions described above) in the presence of a number (a wide range) of p-tyramine concentrations.
The specific fluorescence emission (used to obtain the final results) was calculated after subtraction of the background activity, which was determined from wells containing all components except the hMAO, which were replaced by a sodium phosphate buffer solution.

hMAO-B [2] = system: hMAO-B; set-up: method as in PMID 19948168, PMID 14965331; details: cited from earlier work
[3] = Table 2, mean ± S.E.M., n = 3, control assays, read-out: IC50 hCOX-1
[4] = Table 3, mean ± S.E.M., n = 3, rational assays selected by the modeling, read-out: IC50 hCOX-1
[5] = Table 2, mean ± S.E.M., n = 3, rational assays selected by the modeling, read-out: IC50 hMAO-B
[6] = highest concentration tested 100 μM, read-out: IC50 hMAO-B (rounded)
[7] = Table 3, mean ± S.E.M., n = 3, control assays, read-out: IC50 hMAO-B
[8] = highest concentration tested 100 μM, read-out: IC50 hCOX-1 (rounded)

T1 sequence (P23219 24-599): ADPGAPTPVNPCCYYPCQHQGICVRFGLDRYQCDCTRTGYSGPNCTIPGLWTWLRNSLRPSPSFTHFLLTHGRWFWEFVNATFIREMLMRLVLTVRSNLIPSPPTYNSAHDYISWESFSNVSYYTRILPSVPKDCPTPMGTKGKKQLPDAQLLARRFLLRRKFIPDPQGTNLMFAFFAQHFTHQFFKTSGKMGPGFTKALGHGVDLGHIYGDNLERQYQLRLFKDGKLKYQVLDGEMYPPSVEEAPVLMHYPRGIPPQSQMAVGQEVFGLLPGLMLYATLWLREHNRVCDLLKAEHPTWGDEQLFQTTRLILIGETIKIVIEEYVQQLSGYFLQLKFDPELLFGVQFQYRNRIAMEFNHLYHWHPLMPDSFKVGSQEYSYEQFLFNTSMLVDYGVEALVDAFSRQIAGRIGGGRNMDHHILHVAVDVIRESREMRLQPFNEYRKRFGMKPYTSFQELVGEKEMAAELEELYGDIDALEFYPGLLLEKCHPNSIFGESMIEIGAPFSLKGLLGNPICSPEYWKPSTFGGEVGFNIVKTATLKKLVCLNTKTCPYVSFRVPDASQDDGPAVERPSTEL

IC50 (hCOX-1; [3]): 0.094 ± 0.006 µM | IC50 (hCOX-1; [4]): 0.094 ± 0.006 µM
SMILES: COc1ccc(-c2nc(C(=O)N3CCN(C)CC3)sc2-c2ccc(OC)cc2)cc1 [FR122047]

IC50 (hMAO-A; Table 2, mean ± S.E.M., n = 3, control assays, read-out: IC50 hMAO-A): > 100 µM | IC50 (hMAO-B [1]; [5]): > 100 µM | IC50 (hMAO-B [1]; [6]): > 100 µM | IC50 (hCOX-1; [3]): > 100 µM
SMILES: COc1ccc2nc(NC(=O)Nc3ccccc3)sc2c1 [Frentizole]

IC50 (hMAO-B [1]; [7]): > 100 µM | IC50 (hCOX-1; [4]): > 100 µM | IC50 (hCOX-1; [8]): > 100 µM
SMILES: Cc1cccc(-c2n[nH]cc2-c2ccc3ncccc3n2)n1 [GW786460X]

IC50 (hMAO-B [1]; [7]): > 100 µM | inhibition at 25 µM (hCOX-1): 28%
SMILES: O=Nc1c(-c2c(O)[nH]c3ccccc23)[nH]c2ccccc12 [Indirubin-3′-monoxime, indirubin-3′-monoxime]

IC50 (hMAO-B [1]; [7]): > 100 µM | inhibition at 25 µM (hCOX-1): 19.5%
SMILES: CS(=O)(=O)CCNCc1ccc(-c2ccc3ncnc(Nc4ccc(OCc5cccc(F)c5)c(Cl)c4)c3c2)o1 [Lapatinib, lapatinib]

SMILES: COc1cc(/C=C/C(=O)N2CCC=CC2=O)cc(OC)c1OC [Piperlongumine, piperlongumine]
IC50 (hMAO-A): > 100 µM | IC50 (hMAO-B [1]; [5]): 65.1 ± 2.99 µM | IC50 (hMAO-B [1]; [6]): 65 µM | IC50 (hCOX-1): > 100 µM

IC50 (hMAO-B [1]; [7]): > 100 µM | IC50 (hCOX-1; [4]): 25.4 ± 3.8 µM | IC50 (hCOX-1; [8]): 25 µM
SMILES: O=C1NC(=O)C(c2c[nH]c3ccccc23)=C1c1c[nH]c2ccccc12 [RO-316233]

IC50 (hMAO-B [1]; [7]): > 100 µM | IC50 (hCOX-1; [4]): 23.6 ± 3.53 µM | IC50 (hCOX-1; [8]): 24 µM
SMILES: Oc1ccc(-c2nc(-c3ccncc3)c(-c3ccc(F)cc3)[nH]2)cc1 [SB-202190]

SMILES: NS(=O)(=O)Cc1noc2ccccc12 [zonisamide]
IC50 (hMAO-B [2]; read-out: IC50 of zonisamide (MAO-B)): ~25 µM | Ki (hMAO-B [2]; read-out: Ki of zonisamide (MAO-B)): 3.1 µM
